Assay results taken from patent publication US8933102B2, “Pyrrolidine derived β3 adrenergic receptor agonists” (Merck Sharp & Dohme Corp., priority 2010, dated 2015).
pEC50: −log10 of the molar value. Like-named read-outs stand apart in the source and are kept apart here.

Target: T1, human β3 adrenergic receptor (Homo sapiens, UniProt P13945)
T1 construct: expressed in transfected cells; host or cells: Chinese hamster ovary (CHO) cells, stably transfected
Assay: Beta-3 agonist in vitro functional assay (cAMP production, LANCE, CHO cells stably transfected with cloned β3 receptor)
Format: cell-based
Conditions: cAMP production in CHO cells expressing human β3 AR
Procedure: Functional Assay: cAMP production in response to ligand is measured according to Barton, et al. (1991, Agonist-induced desensitization of D2 dopamine receptors in human Y-79 retinoblastoma cells. Mol. Pharmacol. […]) modified as follows. cAMP production is measured using a homogenous time-resolved fluorescence resonance energy transfer immunoassay (LANCE™, Perkin Elmer) according to the manufacture's instructions. Chinese hamster ovary (CHO) cells, stably transfected with the cloned β-adrenergic receptor (β1, β2 or β3) are harvested after 3 days of subculturing. Harvesting of cells is done with Enzyme-free Dissociation Media (Specialty Media). Cells are then counted and resuspended in assay buffer (Hank's Balanced salt solution supplemented with 5 mM HEPES, […]) containing a phosphodiesterase inhibitor (IBMX, 0.6 mM). The reaction is initiated by mixing 6,000 cells in 6 μL with 6 μL Alexa Fluor labeled cAMP antibody (LANCE™ kit) which is then added to an assay well containing 12 μL of compound (diluted in assay buffer to 2× final concentration). The reaction proceeds for 30 minutes at RT and is terminated by the addition of 24 ul detection buffer (LANCE™ kit). The assay plate is then incubated for 1 h at RT and time-resolved fluorescence measured on a Perkin Elmer Envision reader or equivalent. The unknown cAMP level is determined by comparing fluorescence levels to a cAMP standard curve.
The non-selective, full agonist 13-adrenergic ligand isoproterenol is used at all three receptors to determine maximal stimulation. The human β3 adrenergic receptor (AR) selective ligand (S)—N-[4-[2-[[2-hydroxy-3-(4-hydroxyphenoxy)propyl]amino]ethyl]-phenyl]-4-iodobenzenesulfonamide is used as a control in all assays. Isoproterenol is titrated at a final concentration in the assay of 10^-10 M to 10-5 and the selective ligand (S)—N-[4-[2-[[2-hydroxy-3-(4-hydroxyphenoxy)propyl]amino]ethyl]phenyl]-4-iodobenzenesulfonamide is titrated at the β3 receptor at concentration of 10^-10 M to 10^-5 M. Unknown ligands are titrated at all 3 β-adrenergic receptor subtypes at a final concentration in the assay of 10^-10 M to 10^-5 M to determine the EC50. The EC50 is defined as the concentration of compound that gives 50% activation of its own maximum. Data are analyzed using Microsoft Excel and Graphpad Prism or an internally developed data analysis software package.

[1] = ranges as class symbols, read-out: Human β3 agonist functional activity

T1 sequence (P13945 whole entry): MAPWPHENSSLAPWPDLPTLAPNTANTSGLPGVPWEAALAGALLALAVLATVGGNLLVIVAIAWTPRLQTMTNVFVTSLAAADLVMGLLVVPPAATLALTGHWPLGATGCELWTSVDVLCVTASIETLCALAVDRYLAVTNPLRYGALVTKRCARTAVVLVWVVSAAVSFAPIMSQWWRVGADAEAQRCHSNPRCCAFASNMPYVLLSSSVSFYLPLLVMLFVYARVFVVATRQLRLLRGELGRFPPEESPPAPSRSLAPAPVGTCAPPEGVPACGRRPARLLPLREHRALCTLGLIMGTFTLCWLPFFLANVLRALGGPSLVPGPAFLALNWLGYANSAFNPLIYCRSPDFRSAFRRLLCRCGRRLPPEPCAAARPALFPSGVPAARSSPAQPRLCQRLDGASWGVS

Row | pEC50 (read-out: human Beta-3 agonist functional activity) | pEC50 [1] | SMILES
1 | 8.00 to 9.00 | – | O=C(c1ccc(C[C@@H]2CC[C@H]([C@H](O)COc3ccccc3)N2)cc1)N1CCC(n2cccn2)CC1 [Example 1]
2 | – | 8.00 to 9.00 | O=C(c1ccc(C[C@@H]2CC[C@H]([C@H](O)COc3ccccc3)N2)cc1)N1CCC(n2nccn2)CC1 [Example 2]
3 | – | 7.00 to 7.96 | O=C(c1ccc(C[C@@H]2CC[C@H]([C@H](O)COc3ccccc3)N2)cc1)N1CCC(n2ccnn2)CC1 [Example 3]
4 | – | > 9.00 | Cn1nnnc1C1CCN(C(=O)c2ccc(C[C@@H]3CC[C@H]([C@H](O)COc4ccccc4)N3)cc2)CC1 [Example 4]
5 | – | > 9.00 | O=C(c1ccc(C[C@@H]2CC[C@H]([C@H](O)COc3ccccc3)N2)cc1)N1C[C@@H]2[C@H](C1)[C@H]2n1cnnn1 [Example 5]
6 | – | 8.00 to 9.00 | O=C(c1ccc(C[C@@H]2CC[C@H]([C@H](O)COc3ccccc3)N2)cc1)N1CCN(Cc2ccncn2)CC1 [Example 6]
